Square brackets hold non-standard residues; d marks the D form. Ends that are not written are not given here. Peptide text beside a SMILES is read from it.
Legend:
[1] = test system: B16F10, mouse melanoma cell line; test: Tumor growth in B16F10 syngeneic mouse cancer model; format: in vivo; conditions: peptide 10 mg/kg QD subcutaneous, temozolomide 50 mg/kg TIW oral gavage; for Mean (SEM) Percent Reduction in Tumor Volume vs Control: Day 11, relative to vehicle control; for Mean (SEM) Tumor Volume on Day 11: female C57Bl/6 mice, 8-10 animals per arm
Description: The effect of the peptides on tumor growth can be assessed by monitoring tumor volume in a syngeneic mouse cancer model, such as B16F10, mouse melanoma cell line. The study was performed by HD Biosciences/WuXi (San Diego, Calif.). B16F10 cells were expanded in culture for a maximum of five passages prior to implantation, until growing exponentially when harvested. On Day 0, B16F10 cells (0.2×10^6 cells in […] serum free media; >95% viable tumor cells) were implanted into the right hind flank of female C57Bl/6 mice. When a mean tumor volume of approximately 100 mm^3 (range 75-125 mm^3) was reached, tumor-bearing animals were randomized and treatments were initiated on the same day. Test peptides were resuspended in phosphate buffered saline (PBS) and administered once daily (QD) by subcutaneous injection at 10 mg/kg in 5.0 ml/kg vehicle. Vehicle (PBS) was administered QD by intraperitoneal injection in 5 ml/kg. Temozolomide was administered three times per week (TIW) by oral gavage at 50 mg/kg in 5.0 ml/kg vehicle. Animals were inspected daily over the course of 11 days for abnormalities. Tumor volumes were determined by calliper measurements twice per week and calculated according to the formula: V (mm^3)=W^2×L/2 (L=length and W=the perpendicular width of the tumor, L>W). Data are presented as the mean (SEM) of 8-10 animals per arm for tumor volume on Day 11 and percent decrease in tumor volume relative to vehicle control treatment. Treatment with a combination of test peptide and temozolomide produced a greater reduction in tumor volume compared to either vehicle control treatment or treatment with temozolomide alone.

[2] = test system: CXCR4/CXCL12 induced p-MEK; test: CXCR4/CXCL12 induced p-MEK in Jurkat cells (ELISA); format: cell-based, human; conditions: 5 nM CXCL12, 5 min
In short: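 Jurkat cells in RPMI+GlutaMax containing 10% FBS and 1% penicillin/streptomycin, fresh or conditioned, were resuspended at 2×10^6 cells/ml and […] aliquots placed in tubes. After a 5 min stimulation they were pelleted, rinsed with HBSS and lysed with PMSF and protease/phosphatase inhibitors. Phospho-MEK1 (Ser217/221) was quantified by sandwich ELISA with absorbance read at 450 nm.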

[3] = target: T1, human CXCR4 (Homo sapiens, UniProt P61073); test: IC50 for CXCR4/CXCL12 ligand binding, HTRF format (Example 24); set-up: host or cells: HEK293 (Tag-lite CXCR4 cells, frozen aliquots, transient expression)
Description: Peptides were initially prepared as 1 mM stock in H2O. […] Following the manufacture's protocol, a frozen aliquot of Tag-lite CXCR4 cells was thawed and immediately seeded onto 384-well plates in TLB. […] The plates were covered in aluminum foil and left at room temperature for 3 hours. Following the 3 hour incubation period, the plates were removed from the incubator and fluorescence measured using a Cytation 1 plate reader using a HTRF filter cube ([…]; BioTek; Winooski, Vt.).

[4] = target: T1, human CXCR4; test: IC50 for inhibition of CXCR4 activation, β-Arrestin recruitment (Example 22); format: cell-based; set-up: host or cells: C2C12 (mouse myoblast) CXCR4 β-Arrestin PathHunter cell line
In short: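 C2C12 cells co-expressing ProLink-tagged human CXCR4 and Enzyme Acceptor-tagged β-arrestin (PathHunter). Peptides tested in 10-point, 3-fold dilutions from 1 μM (1 μM–0.05 nM). Recruitment read by chemiluminescent enzyme-fragment complementation after 90 min incubation.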

[5] = target: T1, human CXCR4; test: CXCR4/CXCL12 binding, HTRF format, single concentration (Example 23); set-up: host or cells: HEK293 (Tag-lite CXCR4 cells, frozen aliquots, transient expression); conditions: 15 nM CXCR4R fluorescent probe, 3 hours, HEK293 Tag-lite CXCR4 cells
In short: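 Tag-lite CXCR4 cells were exposed to peptide at 400 nM final with 15 nM (EC80) fluorescent CXCR4 probe for 3 h at room temperature. HTRF was read, and the 665/620 nm ratio ×10,000 measured probe bound to terbium-labelled receptor.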

[6] = test system: Jurkat cells; test: CXCL12 mediated cell migration, Jurkat cells; format: cell-based, human; conditions: 1.1 μM test article, 100 ng/ml CXCL12, 1 hour
In short: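 Jurkat cells in serum-free RPMI with 0.5% BSA, 250,000 per upper chamber of a 5 μm Transwell, with peptides at 1.1 μM final. Migration toward CXCL12 ran 1 h at 37 °C in 5% CO2. Cells reaching the lower chamber quantified by ATP luminescence (CellTiter-Glo 2.0).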

[7] = test system: C2C12 Mouse Myoblasts; test: Glucose utilization in C2C12 mouse myoblasts; format: cell-based; conditions: metformin 1 mM
Description: The effect of the peptides on glucose metabolism can be assessed using an assay of glucose utilization in cultured cultured cells such as mouse myoblasts. Peptides were initially prepared as 10 mM stock in DMSO and used at a final concentration of 10 μM (0.1% DMSO). C2C12 mouse myoblast cell line was purchased from American Type Culture Collection (Manassas, Va.). C2C12 cultures were maintained at 37° C. in a humidified atmosphere of 5% CO2/95% air with medium changes every second day. C2C12 cells were grown in DMEM (1 g/L glucose) supplemented with 10% FBS with 100 IU/ml penicillin and 100 μg/ml streptomycin. C2C12 cells were seeded at 7,000 cells per well on 96-well plates and cultured to confluence. Once the cell reached confluence the media was changed to DMEM (1 g/L glucose) supplemented with 2% HS with 100 IU/ml penicillin and 100 μg/ml streptomycin and maintained at 37° C. in a humidified atmosphere of 5% CO2/95% air, 5 days post-induction of differentiation fresh DMEM (1 g/L glucose) supplemented with 2% HS with 100 IU/ml penicillin and 100 μg/ml streptomycin was added to cultures. Cells were maintained at 37° C. in a humidified atmosphere of 5% CO2 and 95% air for 5 hours. After 5 hours test peptides at 10 μM or controls (0.5 mM or 1 mM metformin in 1% DMSO) prepared in fresh differentiation medium were added to cells and the cultures were maintained at 37° C. in a humidified atmosphere of 5% CO2/95% air for 18-22 hours. At the end of the incubation culture media was removed from the cells and the remaining glucose concentration was measured using a Glucose Assay kit (Abcam) according to the manufacturer's instructions, using a Cytation 3 plate reader at 570 nm (BioTek, Winooski, Vt.). Glucose concentrations in the medium were calculated relative to 0.1% DMSO treated control cells. The relative standard deviation of the result for the 0.1% DMSO treated control was <20%. Metformin was used as a positive control for reduction of glucose levels (increased glucose utilization glucose levels for treatment with metformin (1 mM) treatment were <20% of the 0.1% DMSO treated control value. The results are reported in Table 7.

[8] = Cell viability, PrestoBlue assay; format: cell-based; conditions: human; read-out: Cell viability, % of background corrected DMSO control value
Description: The effect of the peptides on cell viability can be assessed in cultured cells using suitable assay of viability such as the PrestoBlue® assay (Thermo Fisher Scientific, Waltham, Mass.). Peptides were initially prepared as 10 mM stock in DMSO and tested at a final concentration of 10 μM (0.1% DMSO). […] PrestoBlue Assay Reagent was purchased from Thermo Fisher Scientific. A172 human brain glioblastoma cell line was purchased from American Type Culture Collection (Manassas, Va.). A172 cells were grown in DMEM supplemented with 10% FBS with 100 IU/ml penicillin and 100 μg/ml streptomycin. Cultures were maintained at 37° C. in a humidified atmosphere of 5% CO2/95% air. A172 cells were seeded at 8,000 cells per well on 96-well plates. […] Cell viability was determined using a PrestoBlue Assay reagent […] according to the manufacturer's instructions. Absorption for each sample well on the plate was measured using a Cytation 3 plate reader at 560 nm and 590 nm (BioTek, Winooski, Vt.). Activity was calculated relative to 0.1% DMSO untreated control. Treatment with 0.1% DMSO alone was used as the cell viability activity control. The relative standard deviation of the DMSO control was <5%.

[9] = test system: SH-SY5Y Neuroblastoma Cells; test: ATP levels (CellTiter-Glo); format: cell-based, human; conditions: staurosporine 1 μM
Description: The effect of the peptides on cellular metabolism can be assessed using an assay of ATP levels in cultured cells such as human neuroblastoma cells. Peptides were initially prepared as 10 mM stock in DMSO and used at a final concentration of 10 μM (0.1% DMSO). […] CellTiter-Glo® Assay kit was purchased from Promega. SH-SY5Y human bone marrow neuroblastoma cell line was purchased from American Type Culture Collection (Manassas, Va.) and licensed from Memorial Sloan-Kettering Cancer Center (New York, N.Y.). SH-SY5Y cells were grown in DMEM/F12 medium supplemented with 10% FBS with 100 IU/ml penicillin and 100 μg/ml streptomycin. Cultures were maintained at 37° C. in a humidified atmosphere of 5% CO2/95% air. SH-SY5Y cells were seeded at 30,000 cells per well on 96-well plates. […] ATP levels were determined using a CellTiter-Glo Assay kit (Promega) according to the manufacturer's instructions. Luminescence for each sample well on the plate was measured using a Cytation 3 plate reader (BioTek, Winooski, Vt.). Activity was calculated relative to 0.1% DMSO treated control. The relative standard deviation of the result for the 0.1% DMSO treated control was <5%.

[10] = test system: 3T3-L1 Mouse Adipocytes; test: Free fatty acid levels in cultured mouse adipocytes; format: cell-based; conditions: insulin 100 nM
Description: The effect of the peptides on fatty acid metabolism can be assessed using an assay of free fatty acid levels in cultured cells such as mouse adipocytes. Peptides were initially prepared as 10 mM stock in DMSO and used at a final concentration of 10 μM (0.1% DMSO). […] Mouse 3T3-L1 cells purchased from ZenBio were seeded at 3,000 cells per well in 96-well plates in Pre-adipocyte Medium (Zen-Bio) and grown to confluence at 37° C. in a humidified atmosphere of 5% CO2/95% air. Two days after confluence, cells were placed in Adipocyte Differentiation Medium (Zen-Bio) and cultured for three additional days at 37° C. in a humidified atmosphere of 5% CO2/95% air. The culture media was then replaced with Adipocyte Maintenance Medium (Zen-Bio) and the cells maintained for an additional 9-12 days at 37° C. in a humidified atmosphere of 5% CO2/95% air with partial medium replacement every other day. Following 12-15 days of differentiation, test peptides were added at a final concentration of 10 μM in 0.1% DMSO and incubated for 20-22 hours in Adipocyte Maintenance Medium at 37° C. in a humidified atmosphere of 5% CO2/95% air. After 20-22 hours, 1 nM isoproterenol was added to all wells except untreated controls and test peptides were replenished. Insulin at 100 nM was added to control wells. Cells were incubated for 3 hours in Assay Buffer (Zen-Bio) at 37° C. in a humidified atmosphere of 5% CO2/95% air. Free fatty acid concentrations in the media were determined using a Free Fatty Acid Assay kit (Zen-Bio) according to the manufacturer's instructions using a Cytation 3 plate reader at 540 nm (BioTek, Winooski, Vt.). Absorbance values were corrected for untreated background and expressed relative to isoproterenol treated cells. Treatment with isoproterenol (1 nM) alone was used as the free fatty acid level stimulatory control. The relative standard deviation of the isoproterenol control was <10%. […] Free fatty acid levels for insulin (100 nM) treatment were <5% of the isoproterenol control value.

T1 sequence (P61073 whole entry): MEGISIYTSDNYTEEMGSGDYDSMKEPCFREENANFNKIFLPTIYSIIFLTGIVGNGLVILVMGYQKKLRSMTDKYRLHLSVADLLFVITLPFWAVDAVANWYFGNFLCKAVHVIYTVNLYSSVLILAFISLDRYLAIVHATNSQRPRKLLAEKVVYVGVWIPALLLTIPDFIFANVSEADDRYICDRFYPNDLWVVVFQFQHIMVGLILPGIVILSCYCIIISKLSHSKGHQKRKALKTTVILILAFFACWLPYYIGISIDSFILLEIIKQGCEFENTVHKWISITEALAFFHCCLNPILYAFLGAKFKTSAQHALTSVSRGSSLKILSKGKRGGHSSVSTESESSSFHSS

Molecule: Cn1nnc2c(C(N)=O)ncn2c1=O [Temozolomide, reference compound]
- Mean (SEM) Percent Reduction in Tumor Volume vs Control [1]: 37.9%
- Mean (SEM) Tumor Volume on Day 11 [1]: 1190 mm^3

Molecule: CC(C)C[C@H](NC(=O)[C@H](CO)NC(=O)[C@H](CO)NC(=O)[C@H](CCCNC(=N)N)NC(=O)[C@@H](NC(=O)[C@H](CO)NC(=O)[C@H](Cc1c[nH]cn1)NC(=O)[C@H](Cc1c[nH]cn1)NC(=O)[C@H](Cc1ccc(O)cc1)NC(=O)[C@H](CCCNC(=N)N)NC(=O)[C@H](CCC(=O)O)NC(=O)[C@@H](N)CC(C)C)C(C)C)C(=O)N[C@@H](CCCNC(=N)N)C(=O)NCC(=O)N[C@@H](Cc1ccc(O)cc1)C(=O)N[C@H](C(=O)N[C@@H](CCCCN)C(=O)O)[C@@H](C)O [compound 80] (H-LERYHHSVRSSLRGYTK-OH; N-terminus and C-terminus assumed)
- Percent Inhibition of CXCR4/CXCL12 Induced p-MEK (100 nM Test Article) ([2]; 100 nM test article): 52%
- Percent Inhibition of CXCR4/CXCL12 Induced p-MEK (1 μM Test Article) ([2]; 1 μM test article): 96%
- IC50 [3]: 6 nM
- IC50 [4]: 4 nM
- Percent Inhibition of CXCR4/CXCL12 Binding (400 nM peptide) [5]: 88%
- Percent Inhibition of CXCL12 Mediated Migration (1.1 μM Test Article) [6]: 71%

Molecule: CN(C)C(=N)N=C(N)N [metformin, Metformin, reference compound]
- Glucose levels, % of 0.1% DMSO treated control value [7]: < 20%

Molecule: CN[C@@H]1C[C@H]2O[C@@](C)([C@@H]1OC)n1c3ccccc3c3c4c(c5c6ccccc6n2c5c31)C(=O)NC4 [staurosporine, Staurosporine, reference compound]
- viability at 1 µM [8]: < 75%
- ATP levels, % of 0.1% DMSO treated control value [9]: < 5%

Molecule: Insulin [reference compound]
- Free fatty acid levels, % of isoproterenol control value [10]: < 5%

Molecule: LERYHHS(dA)RSSLRPYT (LERYHHS[dA]RSSLRPYT) [SEQ ID NO: 5]
- Mean (SEM) Percent Reduction in Tumor Volume vs Control [1]: 7.2%
- Mean (SEM) Tumor Volume on Day 11 [1]: 1770 mm^3

Molecule: LERYHHSVRSSLRPYTK (LERYHHSVRSSLRPYTK-NH2) [SEQ ID NO: 4]
- Mean (SEM) Percent Reduction in Tumor Volume vs Control [1]: 14.9%
- Mean (SEM) Tumor Volume on Day 11 [1]: 1620 mm^3

— patent US20220395553A1, “CXCR4 ANTAGONIST PEPTIDES” (COHBAR, INC., priority 2019, published 2022)
